Source: patent publication US7355074B2, “Compounds having aromatic rings and side-chain amide-functionality and a method for transporting monovalent anions across biological membranes using the same” (The University of Maryland, priority 2003, dated 2008)

Tests used:
Type in all cases: biochemical
[1] = pH-assisted fluorimetric transport assay with calixarene amides (HPTS-loaded liposomes); settings: extravesicular Na, K or Cs chloride; ligand lipid ratios of up to 1:20
Protocol: The ability of 1 and 2 to mediate ion flux across a lipid bilayer was studied fluorimetrically. A solution of 1 or 2 was added to a suspension of EYPC large unilamellar vesicles (LUVs) containing the pH-sensitive dye pyranine. An NaOH solution was added to the extravesicular buffer to create a gradient of approximately one pH unit. The resulting electrostatic potential, caused by proton efflux from the liposomes, can be compensated by cation influx or anion efflux, as mediated by the exogenous ligand. Ion transport across the membrane was signaled by the increase in relative fluorescence that accompanied the rise in intravesicular pH.
Liposome Preparation. EYPC HPTS-Containing LUVs, egg yolk 1-α-phosphatidylcholine (EYPC, 60 mg, […]) was dissolved in a CHCl3MeOH mixture, the solution was evaporated under reduced pressure, and the resulting thin film was dried under high vacuum for 2 h. The lipid film was hydrated in 1.2 mL of phosphate buffer (10 mM sodium phosphage, pH=6.4, 75-100 mM MX, M=Na^+, K^+, Cs^+, X=[…], SO4^2−) containing 10 μM HPTS (pyranine 8-hydroxypyrene-1,3,6-trisulfonic acid trisodium salt) for 2 h. The LUV suspension (1 mL) was submitted to high-pressure extrusion at room temperature (2) extrusions through a 0.1 μM polycarbonate membrane afforded LUVs with a diameter of 100 nm). The LUV suspension was separated from extravesicular dye by size exclusion chromatography (SEC) stationary phase: Sephadex G-10, mobile phase:phosphate buffer) and diluted with the same phosphate buffer to give a stock solution with a lipid concentration of 11 mM (assuming 100% of lipid was incorporated into liposomes).
Fluorimetric Transport Assays. pH-Assisted Transport Assays. Typically, 100 μL of HPTS-loaded vesicles (stock solution) was suspended in 1.85 mL of the corresponding buffer and placed into a fluorimetric cell. HPTS emission at 510 nm was monitored with excitation wavelengths at 403 and 460 nm simultaneously. During the experiment, 20 μL of a 0-10 mM THF solution of the compound of interest was added through an injection port, followed by injection of 21 μL of 0.5 M aqueous NaOH. Addition of the NaOH caused a pH increase of approximately 1 pH unit in the extravesicular buffer. Maximal changes in dye emission were obtained at the end of each experiment by lysis of the liposomes with detergent (40 μL of 5% aqueous Triton x100). The final transport trace was obtained as a ratio of the emission intensities monitored at 460 and 403 nm and normalized to 100% of transport.

[2] = pH-stat fluorescent transport assay with oligophenoxyacetamides (HPTS-loaded liposomes); settings: 100 mM NaCl inside and outside
Protocol: FIGS. 1A and 1B are derived from of pH-stat fluorescent assays with oligophenoxyacetamide compounds 1-6 described herein. Suspensions of EYPC LUVs containing the pH sensitive dye pyranine (ex 405 nm and 460 nm em 510 nm) in a phosphate buffer were used (0.5 mM of lipid, 10 mM NanH3-nPO4 n=1, 2, pH 6.4 100 mM NaCl inside and outside) (A) illustrates initial pseudo-first order rate constants in the presence of 5 μm of ionophores 1-6 (1 mol % injection of 20 μl of 0.5 mM DMSO solution of 1-6 into 1.9 mL of vesicular suspension was followed by injection of 21 μl of 0.5 M NaOH and final lysis of liposomes with Triton X-100; (B) illustrates initial pseudo-first order rate constants assessed for various concentrations of oligomeric ionophores 2-6. The same experimental protocol as in (A) was used. Legend for traces denotes use of oligocompounds 2, 3, 4, 5, 6.
(§1) Liposome Preparation for Fluorimetric Assays. Egg yolk L-α-phosphatidylcholine (EYPC ethanol solution, […], 79 μmol) was dissolved in a CHCl3/MeOH mixture, the solution was evaporated under reduced pressure and the resulting thin film was dried under high vacuum for 2 h. The lipid film was hydrated in 1.2 mL of phosphate buffer (10 mM sodium phosphate, pH=6.4, 75-100 mM MnX, M=N^+, K^+, X=Cl^−, SO4^2−, n=1,2) containing 10 μM HPTS (pyranine, 8-hydroxypyrene-1,3,6-trisulfonic acid trisodium salt) for 40 min. During hydration, the suspension was submitted to 5 freeze-thaw cycle (liquid nitrogen, water at rt). The large multilamellar liposome suspension (1 mL) was submitted to high-pressure extrusion at rt (21 extrusions through a 0.1 μm polycarbonate membrane afforded a suspension of LUVs with an average diameter of 100 nm). The LUV suspension was separated from extravesicular dye by size exclusion chromatography (SEC) (stationary phase: Sephadex G-10, mobile phase: phosphate buffer) and diluted with the same phosphate buffer to give a stock solution with a lipid concentration of 11 mM (assuming 100% of lipid was incorporated into liposomes).
pH-state transport assays. Typically, 100 μL of HPTS-loaded vesicles (stock solution) was suspended in 1.9 mL of the corresponding buffer and placed into a fluorimetric cell. The emission of HPTS at 510 nm was monitored with excitation wavelengths at 403 and 460 nm simultaneously. During the experiment, 20 μL of a 0-10 mM DMSO solution of the compounds of interest was added (through an injection port), followed by injection of 21 μL of 0.5 M aqueous NaOH. […] Maximal possible changes in dye emission were obtained at the end of each experiment by lysis of the liposomes with detergent (40 μL of 5% aqueous Triton X100). The final transport trace was obtained as a ratio of the emission intensities monitored at 460 and 403 nm and normalized to 100% of transport. Pseudo-first order rate constants were calculated from slopes of the plot of In([H^+ins]−[H^+out]) versus time, here [H^+ins] and [H^+out] are the intravesicular and extravesicular proton concentrations, respectively. The [H^+out] was assumed to remain constant over the course of the experiment, while [H^+ins] values were calculated for each point from the HPTS emission intensities according to the calibration equation pH=1.1684·log(Io/Il)+6.9807, where Io is the emission intensity with excitation at 460 nm and Il is emission intensity with excitation at 403 nm. The calibration was performed by measuring the HPTS emission intensities and the pH values of a […] HPTS solution in 10 mM phosphate buffer containing 100 mM NaCl (see FIG. s3). The absolute values for rate constants varied depending on the age of the vesicular solution and the actual stock solution of liposomes used.

[3] = pH changes in liposomes experiencing a Cl- gradient (oligophenoxyacetamides); settings: NaCl-loaded liposomes in Na2SO4 buffer; for alkalinization of the vesicular compartment: equal amount (4 mol %)
Protocol: FIG. 2B illustrates alkanization of the vesicular aqueous compartment upon application of compounds 1-6 to a suspension of NaCl-containing vesicles in isosmomolar Na2SO4 buffer. Concentration of compounds 1-6 in the vesicular suspension was 20 μm (4 mol %). Legend for traces denotes use of oligocompounds 1, 2, 3, 4, 5, 6.
as §1
(§2) Analysis of pH changes in the liposomes experiencing a CT gradient. a) Outwardly directed gradient of Cl:HPTS-loaded vesicles (100 μL of the stock solution), filled with a saline phosphate buffer (10 mM sodium phosphate, pH 6.4, 100 mM NaCl) were suspended in 1.9 mL of an isosmotic phosphate sulfate buffer (10 mM sodium phosphate, pH 6.0, 75 mM Na2SO4) and placed into a fluorimetric cell. The emission of HPTS at 510 nm was monitored with excitation wavelengths at 403 and 460 nm simultaneously. During the experiment, 20 μL of a 0-2 mM DMSO solution of the compound of interest was added through an injection port. Intravesicular pH values were obtained as described for pH-stat transport assays. At the end of experiment, the aqueous compartment of liposomes was equilibrated with extravesicular solution by lysis of liposomes with detergent (40 μL of 5% aqueous Triton X100). b) Inwardly directed gradient of Cl:HPTS-loaded vesicles (100 μL of the stock solution), filled with a isoosimomolar sulfate phosphate buffer (10 mM sodium phosphate, pH 6.0, 75 mM Na2SO4) were suspended in 1.9 mL of an isosmotic phosphate saline buffer (10 mM sodium phosphate, pH 6.4, 100 mM NaCl) and placed into a fluorimetric cell. Further analysis was conducted as described for the case of an outwardly directed gradient of […]. Analysis of the electrostatic potential on the surface of liposomes. LUVs (100 μL of stock solution, 100 mM KCl inside and outside or 75 mM Na2SO4 inside and outside) were suspended in 1.9 mL of 100 mM NaCl buffer containing 60 nM safranin O (a potential-sensitive dye). Safranin O emission was monitored at 580 nm with excitation at 520 nm. During the course of the experiment, 20 μL of a 0-0.12 mM DMSO solution of valinomycin or 0-2 mM of 3-8 DMSO solution was added. Experiments were completed by injection of 20 μL of 1 mM aqueous solution of the defect-inductive peptide melittin.

[4] = liposome potential assay with safranin O; settings: Na2SO4 vesicles in NaCl buffer (conditions of the trimer)
Protocol: FIG. 3 illustrates liposome potential assays. Suspension of EYPC LUVs in phosphate buffer was used (10 m M Nan H3-n PO4, n=1, 2, pH 6.4, 100 m M KCl or 75 m M Na2 H3-n PO4, n=1, 2, pH 6.4, 100 m M KCl or 75 m M NA2 SO4 inside and 100 m M NaCl, 60 nM safranin O, ex 480 nm, em 520 nm, outside). Legend for trace denotes the formation of potential in: —KCl vesicles upon application of valinmycin·Na2SO4 vesicles upon application of 3, —KCl vesicles upon application of 3, —Na2SO4 vesicles upon application of valinomycin.
as §2

CNC(=O)COc1c2cccc1Cc1cccc(c1OCC(=O)NC)Cc1cccc(c1OCC(=O)NC)Cc1cccc(c1OCC(=O)NC)C2 [Calix[4]arene tetramethylamide 1, Calix[4]arene tetramethylamide]
transport activity [1]: little transport activity

CCCCNC(=O)COc1ccccc1Cc1ccccc1OCC(=O)NCCCC [Dimer 2, bis-(N-butyl-2-phenoxyacetamide)]
transport activity ([2]; below 4 mol % (20 μm)): moderate transport activity
alkalinization of the vesicular compartment [3]: Alkanization of the vesicular compartment was observed

CCCCNC(=O)COc1ccccc1Cc1cccc(Cc2cccc(Cc3cccc(Cc4cccc(Cc5ccccc5OCC(=O)NCCCC)c4OCC(=O)NCCCC)c3OCC(=O)NCCCC)c2OCC(=O)NCCCC)c1OCC(=O)NCCCC [hexamer 6, Hexakis-(N-butyl-2-phenoxyacetamide)]
alkalinization of the vesicular compartment [3]: Alkanization of the vesicular compartment was observed

CCCCNC(=O)COc1ccccc1Cc1cccc(Cc2cccc(Cc3cccc(Cc4ccccc4OCC(=O)NCCCC)c3OCC(=O)NCCCC)c2OCC(=O)NCCCC)c1OCC(=O)NCCCC [pentamer 5, Pentakis-(N-butyl-2-phenoxyacetamide)]
alkalinization of the vesicular compartment [3]: Alkanization of the vesicular compartment was observed

CCCCNC(=O)COc1ccccc1Cc1cccc(Cc2cccc(Cc3ccccc3OCC(=O)NCCCC)c2OCC(=O)NCCCC)c1OCC(=O)NCCCC [tetramer 4, Tetrakis-(N-butyl-2-phenoxyacetamide)]
relative transport activity within the series 1-6 [2]: generally more effective than pentamer 5 and hexamer 6
pH gradient generated ([3]; 4 mol %): the same pH gradient
time to reach the pH gradient ([3]; 4 mol %): 4.5 minutes
relative ability to alter the pH in liposomes under a Cl− gradient [3]: less active than trimer 3

CC(C)[C@@H]1NC(=O)[C@H](C)OC(=O)[C@@H](C(C)C)NC(=O)[C@@H](C(C)C)OC(=O)[C@H](C(C)C)NC(=O)[C@H](C)OC(=O)[C@@H](C(C)C)NC(=O)[C@@H](C(C)C)OC(=O)[C@H](C(C)C)NC(=O)[C@H](C)OC(=O)[C@@H](C(C)C)NC(=O)[C@@H](C(C)C)OC1=O [valinomycin, reference compound]
ability to create a transmembrane potential [4]: cannot create a potential
